Key:
[1] = target: Histamine H1 receptor (Cavia porcellus, UniProt P31389); experiment: Tested for affinity towards H1 receptor in guinea pig ileum; type: tissue-based; conditions: read-out: pA2 (converted)
[2] = target: Histamine H2 receptor (Rattus norvegicus, UniProt P25102); experiment: Affinity to the Histamine H2 receptor was determined expressed in CHO cell using [125I]iodoaminopotentidine as radioligand; type: cell-based
[3] = pKa1 (aliphatic amine); type: physicochemical; conditions: read-out: pKa1
[4] = pKa2 (heterocyclic ring); type: physicochemical; conditions: read-out: pKa2
[5] = target: Histamine H3 receptor (Cavia porcellus) (UniProt Q9JI35); experiment: Tested for affinity towards Histamine H3 receptor in electrically stimulated guinea pig jejunum; type: tissue-based
Sequence of Histamine H3 receptor (Cavia porcellus) (Q9JI35 whole entry): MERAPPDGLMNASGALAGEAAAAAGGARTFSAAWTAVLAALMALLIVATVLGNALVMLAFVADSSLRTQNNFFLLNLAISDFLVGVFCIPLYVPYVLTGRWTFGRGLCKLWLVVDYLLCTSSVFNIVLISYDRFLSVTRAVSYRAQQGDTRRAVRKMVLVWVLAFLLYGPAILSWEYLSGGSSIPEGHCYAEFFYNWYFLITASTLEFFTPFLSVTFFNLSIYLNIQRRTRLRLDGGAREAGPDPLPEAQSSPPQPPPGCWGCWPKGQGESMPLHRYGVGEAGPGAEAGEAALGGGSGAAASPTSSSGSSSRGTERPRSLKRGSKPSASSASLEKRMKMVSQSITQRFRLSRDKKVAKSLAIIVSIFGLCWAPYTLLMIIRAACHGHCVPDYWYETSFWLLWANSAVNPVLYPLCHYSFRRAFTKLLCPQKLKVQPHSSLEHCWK

[6] = target: Histamine H2 receptor (Cavia porcellus) (UniProt P47747); experiment: Histamine H2 receptor activity was determined on the isolated spontaneously beating guinea pig right atrium; type: tissue-based; conditions: Cardiac atrium
Sequence of Histamine H2 receptor (Cavia porcellus) (P47747 whole entry): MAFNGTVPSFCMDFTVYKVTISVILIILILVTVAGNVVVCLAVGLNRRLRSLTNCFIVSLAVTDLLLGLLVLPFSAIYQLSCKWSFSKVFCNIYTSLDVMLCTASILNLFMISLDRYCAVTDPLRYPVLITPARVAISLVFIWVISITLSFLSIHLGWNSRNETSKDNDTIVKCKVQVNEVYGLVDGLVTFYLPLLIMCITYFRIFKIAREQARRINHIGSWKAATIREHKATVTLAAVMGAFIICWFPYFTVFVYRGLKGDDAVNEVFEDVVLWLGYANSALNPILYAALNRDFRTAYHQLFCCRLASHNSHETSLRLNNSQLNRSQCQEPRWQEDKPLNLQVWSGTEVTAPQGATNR

Sequence of Histamine H2 receptor (P25102 whole entry): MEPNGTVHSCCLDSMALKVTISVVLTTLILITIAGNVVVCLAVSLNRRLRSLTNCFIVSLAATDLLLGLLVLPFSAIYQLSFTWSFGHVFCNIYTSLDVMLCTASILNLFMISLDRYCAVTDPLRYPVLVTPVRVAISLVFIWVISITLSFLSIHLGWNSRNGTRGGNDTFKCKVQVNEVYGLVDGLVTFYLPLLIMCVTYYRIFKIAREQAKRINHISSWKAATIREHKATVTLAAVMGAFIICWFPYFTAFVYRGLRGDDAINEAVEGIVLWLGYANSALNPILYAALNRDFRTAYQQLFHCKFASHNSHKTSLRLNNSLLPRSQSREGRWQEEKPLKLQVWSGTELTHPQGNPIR
Sequence of Histamine H1 receptor (P31389 whole entry): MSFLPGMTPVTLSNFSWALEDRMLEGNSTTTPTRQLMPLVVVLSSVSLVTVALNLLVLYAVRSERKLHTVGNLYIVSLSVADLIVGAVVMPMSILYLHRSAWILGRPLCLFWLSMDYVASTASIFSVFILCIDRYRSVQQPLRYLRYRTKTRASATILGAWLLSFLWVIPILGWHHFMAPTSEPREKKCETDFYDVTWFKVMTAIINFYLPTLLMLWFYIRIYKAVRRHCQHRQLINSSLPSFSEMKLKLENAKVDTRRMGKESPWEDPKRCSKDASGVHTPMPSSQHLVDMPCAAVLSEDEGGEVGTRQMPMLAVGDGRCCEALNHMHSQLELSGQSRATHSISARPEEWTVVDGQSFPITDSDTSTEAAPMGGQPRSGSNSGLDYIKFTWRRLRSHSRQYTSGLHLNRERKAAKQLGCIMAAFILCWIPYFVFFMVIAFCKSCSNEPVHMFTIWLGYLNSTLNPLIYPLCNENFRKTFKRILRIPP

SMILES	Kb [1]	Kd [2]	pKa [3]	pKa [4]	pD2 [5]	pD2 [6]
Cc1nc(N)[se]c1CCN	141 µM	9.77 µM	9.21	5.78	4.44	6.41
Cc1nc(N)sc1CCN [AMTHAMINE]	–	11.5 µM	9.15	5.4	–	–
NCCc1c[nH]cn1 [HISTAMINE]	–	117 µM	9.32	5.93	–	–

Source: ChEMBL document CHEMBL1159163, “Amselamine, a new selective histamine H2-receptor agonist” (Bioorg Med Chem Lett, 1994)
